The values that follow come from patent US20250102493A1, “COMPOSITIONS AND METHODS FOR TREATMENT OF ANEUPLOID CANCERS” (Yale University, priority 2023, published 2025).

One assay concerns A2780 cells. Description: 72-hour drug assay in A2780 1q-trisomic and 1q-disomic cells. Format: cell-based, human. The settings on record: for sensitivity of cells harboring a trisomy of chromosome 1q compared to isogenic cells containing two copies of chromosome 1q: A2780, FIG. 6D; for sensitivity of 1q disomic cells compared to 1q trisomic cells: A2780 WT (1q trisomic) and engineered 1q disomic clones C1-C4. From the text: (§1) Following this, the cells were harvested and counted.

The test system of a further assay is DLD1 colon cancer cells. Description: Drug sensitivity of DLD1 trisomy-1 cells and parental DLD1 cells. Format: cell-based. The following applies: P<0.005; t-test. The procedure: The DLD1 trisomy 1 clone was generated as previously described in ref (Vasudevan, et al., Dev. Cell. 52, 413-428.e6 (2020)). In brief, DLD1 cells were transiently treated with 1 μM AZ3146 (Selleck Chemicals; cat. no. S2731) for 24 hours, and then the drug was washed out and the cells were allowed to recover for 24 hours. Following the recovery passage, single-cell sorting was performed to isolate individual aneuploid clones. SMASH-Seq was used to identify a clone harboring a trisomy of chromosome 1.
as §1

Assay [1] relates to MCF10A cells. Description: 72-hour drug assay in MCF10A 1q-trisomic and 1q-disomic cells. Type of assay: cell-based, human. The following applies: FIG. 6D.
Description: as §1

Another assay deals with HAP1 UCK2-knockout cells. The assay can be described thus: 72-hour drug assay in UCK2-knockout HAP1 cells. Format: cell-based. The following applies: haploid HAP1 cell line, UCK2 deleted with CRISPR.
Description: as §1
HAP1 cells harboring a CRISPR-induced frameshift mutation in the UCK2 gene were purchased from Horizon Discovery (cat. no. HZGHC007067c006). Loss of UCK2 expression was verified by western blotting.
First, as the mechanism of many cancer drugs is poorly understood (Lin, et al., Sci. Transl. Med. 11 (2019), Lin & Sheltzer, Nat. Rev. Genet. 21, 671-682 (2020)),whether the cytotoxicity of RX-3117 and 3-deazauridine requires UCK2 expression was assessed.

Another assay relates to AGS cells. Description: 72-hour drug assay in AGS 1q-trisomic and 1q-disomic cells. Format: cell-based, human.
Description: as §1

For the next assay, the system named is A2058 cells. The assay can be described thus: 72-hour drug assay in A2058 1q-trisomic and 1q-disomic cells. Type of assay: cell-based, human.
Description: as §1

A further assay deals with NCI-60 cell line panel. The following applies: NCI-60 panel (Luna et al.); cited from earlier work.
Assay [2] deals with MCF10A cells. Description: Cellular competition between 1q-trisomic and 1q-disomic MCF10A cells. Type of assay: cell-based, human. The procedure:
For the competition experiment, two independent experiments were performed: one when cells were mixed at an 80-20 ratio and one when cells were mixed at a 90:10 ratio. Similar results were obtained in both experiments.
Whether the greater sensitivity of 1q-trisomic cells to UCK2 substrates could be used to re-direct cellular evolution away from aneuploidy and towards a disomic state with lower malignant potential was assessed (FIG. 6E). Fluorescently-labeled 1q-trisomic and 1q-disomic MCF10A cells were mixed at a ratio of 20:80 and then co-cultured the two cell populations. After nine days of growth in drug-free medium, the trisomic cells had expanded to include 75% of the culture, but when the same cell populations were grown in the presence of 500 nM 3-deazauridine, the trisomic population decreased to include only 4% of the final culture (FIG. 6F).

Structures are written as SMILES.

With `Nc1ccn([C@@H]2C(F)=C(CO)[C@@H](O)[C@H]2O)c(=O)n1` [RX-3117], the “effect of ectopic overexpression of UCK2 cDNA on sensitivity to the compound” value in the assay on A2780 cells (1q-disomic A2780 cells) is given as “increase sensitivity”. Moreover, the “effect of deleting a single copy of UCK2 on sensitivity to the compound” value in the assay with A2780 cells (1q-trisomic A2780 cells) is on record as “decrease sensitivity”. Besides, the “sensitivity of cells harboring a trisomy of chromosome 1q compared to isogenic cells containing two copies of chromosome 1q” value in the assay on A2780 cells and in the assay with MCF10A cells [1] was “more sensitive” throughout. In the assay on A2780 cells, the “sensitivity of 1q disomic cells compared to 1q trisomic cells” value is “less sensitive”. In addition, the “sensitivity of DLD1 trisomy-1 cells compared to the parental DLD1 cells” value in the assay with DLD1 colon cancer cells was “significantly more sensitive”. For the same compound, the “response of UCK2-knockout cells to the compound” value in the assay with HAP1 UCK2-knockout cells was “highly resistant”. Moreover, the “difference in sensitivity between 1q-trisomic and 1q-disomic cells” value in the assay with AGS cells and in the assay with A2058 cells was “not evident” in each case. The “correlation of UCK2 expression with sensitivity to the compound” value in the assay on NCI-60 cell line panel is reported as “higher UCK2 expression correlates with greater sensitivity”.
As for `O=C1C=CN([C@@H]2O[C@H](CO)[C@@H](O)[C@H]2O)C(=O)C1` [3-deazauridine], in the assay with A2780 cells, the “sensitivity of cells harboring a trisomy of chromosome 1q compared to isogenic cells containing two copies of chromosome 1q” value is “more sensitive” and the “sensitivity of 1q disomic cells compared to 1q trisomic cells” value is “less sensitive”. Besides, the “sensitivity of cells harboring a trisomy of chromosome 1q compared to isogenic cells containing two copies of chromosome 1q” value in the assay with MCF10A cells [1] is on record as “more sensitive”. The “response of UCK2-knockout cells to the compound” value with HAP1 UCK2-knockout cells was “highly resistant”. For the same compound, the “trisomic population in the final culture” value in the assay on MCF10A cells [2] (500 nM 3-deazauridine, nine days, 1q-trisomic and 1q-disomic MCF10A mixed at 20:80, 75% in drug-free medium) is reported as 4%. In addition, the “effect on outgrowth of the 1q-trisomic subpopulation” value in the assay on MCF10A cells [2] (trisomic and disomic MCF10A mixed at 20% to 80%, FIG. 6F) is reported as “prevents the outgrowth of the 1q-trisomic subpopulation”. Also, in the assay with NCI-60 cell line panel, the “correlation of UCK2 expression with sensitivity to the compound” value is reported as “higher UCK2 expression correlates with greater sensitivity”.
